Where “and” joins values, the source holds several entries; their conditions need not be identical. Equal values may be shown once.
How the values were obtained:
[1] = tested on: S. enterica clinical isolates (SipA secretion through T3SS-1); experiment: Plasmid-based SipA secretion assay in clinical isolates; format: cell-based; conditions: C26 100 μM, 75 strains
Method: The plasmid pT10-SipA-NLuc was electroporated into electrocompetent cells of S. enterica clinical isolates. Bacteria at an initial OD600 of 0.02 were grown for 5 hours in 1 ml of LB supplemented with 0.3 M NaCl, kanamycin (50 μg/ml), and either compound at 100 μM or 1% (v/v) DMSO. Cultures were pelleted, and then 25 μl of the supernatant was transferred to a 384-well plate to measure luminescence as previously described.

[2] = tested on: HilD mutants; experiment: Alanine scan, plasmid-based whole-cell PhilA activation assay; parameters: species or system S. Typhimurium; conditions: C26 100 μM
Method: A plasmid-based assay in a ΔSPI-1 background strain was developed to facilitate the introduction of point mutations in hilD. The Rha cassette (rhaS, rhaR, and Prha) was first deleted from the pT10 backbone ([67]). The fragment PhilD-hilD-PhilA-sfGFP was then inserted upstream of the terminator rrnB. hilD was then deleted from the resulting plasmid to serve as a negative control. Site-directed mutagenesis was performed using KOD polymerase (Novagen). The cell-based fluorescence assay was performed as described above. Statistical analysis was performed by applying a first Bonferroni’s multiple comparisons test to compare treated and untreated conditions within each strain (shown in Fig. 4E) and a second same test to compare the treated mutants to the treated WT condition. The absence of significance in both tests corresponds to mutations inactivating HilD. Significance in the first but not the second test corresponds to a phenotype similar to that of the WT.

[3] = tested on: HilC and RtsA; experiment: Whole-cell PhilA activation by rhamnose-induced hilC or rtsA in ΔhilD backgrounds; format: cell-based, S. Typhimurium; conditions: C26 100 μM, rhamnose 2 mM
Excerpt: Next, we investigated the selectivity of C26 for HilD using the whole-cell PhilA activation assay. In the absence of HilD, the pool of HilC and RtsA is insufficient to activate the expression of hilA. Therefore, assessing the sensitivity of HilC and RtsA to C26 requires PhilA to be activated in a HilD-independent manner. To create such a condition, we used a plasmid-encoded hilC or rtsA under the control of a rhamnose-inducible promoter.
A whole-cell reporter gene assay was used to quantify HilD transcriptional activity. Strain PhilA-sfGFP and the isogenic ΔhilD PhilA-sfGFP were used for this purpose. Cultures were performed in 1 ml of LB supplemented with 0.3 M NaCl. Compounds at different concentrations or 1% (v/v) DMSO were added to the corresponding tubes. Cultures were incubated at 37°C and 180 rpm for 5 hours. Cells were pelleted, resuspended in 100 μl of PBS, and then transferred into a 96-well black clear-bottom plate (Thermo Fisher Scientific, USA). Fluorescence intensity was measured with a Tecan Spark microplate reader with an excitation wavelength of 485 nm and an emission wavelength of 510 nm. Dose-response curves and IC50 values were calculated using CDD Vault.

[4] = tested on: SPI-encoded genes; format: cell-based, S. Typhimurium
Method: Salmonella was grown for 5 hours at 37°C in LB medium in the presence of 100 μM C26 or 1% (v/v) DMSO as a control. After growth, bacteria were harvested by centrifugation, and total RNA was isolated using the Qiagen RNeasy mini kit according to the manufacturer’s protocol. RNA-seq was performed on a HiSeq2500 with a 2 x 125–base pair paired-end read protocol. The Illumina Casava software was used to demultiplex the sequenced reads providing individual raw fastq sample files. Raw fastq files were prefiltered using the chastity filter to remove reads that contain a “Y” flag. FastQC (https://www.bioinformatics.babraham.ac.uk/projects/fastqc/, version v0.11.4) was used to determine the quality of the resulting fastq files. Subsequently, an adapter trimming/removal step was conducted with Cutadapt (https://pypi.python.org/pypi/cutadapt/, version 1.8.3). […] TopHat2 (https://ccb.jhu.edu/software/tophat/index.shtml, version v2.0.12) was used as aligner to map the remaining quality controlled reads to the Salmonella genome. Read counting to features (e.g., genes or exons) in the genome was performed with HTSeq-count (https://htseq.readthedocs.io/en/master/htseqcount.html, version 0.6.0.). Counting was performed using “union” mode on the feature “gene.” The stranded option was also set to “–stranded=no” to indicate to count features on both strands. Furthermore, the -r parameter from HTSeq was set to “pos” as this is the default of the output of TopHat’s “accepted_hits.bam” mapping file. For differential expression analysis, the raw read count table resulting from HTSeq counting is used and fed into the R package DESeq2 (version 1.10.1). Graphs were also produced in the R language (R version 3.2.1) mainly using the R package ggplot2 (version 2.2.0). Reports were produced using the R package rmarkdown (version 1.3).

[5] = C26 100 μM vs DMSO, single replicates (Fig 2E)
[6] = C26 100 μM, size of the down-regulation given without sign

`CN(CC(=O)NCc1ccc2c(c1)OCO2)Cc1ccc(Br)s1` [C26, N-(benzo[d][1,3]dioxol-5-ylmethyl)-2-{[(5-bromothiophen-2-yl)methyl](methyl)amino}acetamide] was tested. Which “sensitivity of clinical isolates (SipA secretion)” value [1] did it give?
The value was “all sensitive”.

What about the “sensitivity of HilD I42A, I100A, N260A, K264A to C26” value [2] of the same compound?
Its value is “partial loss of sensitivity”.

And the “sensitivity of HilD L45A, Y46A, F98A, E102A, Y212A to C26” value [2]?
The value was “full loss of sensitivity”.

What about the “PhilA activation with hilC and/or rtsA as sole activators” value [3] of the same compound?
The value was “did not lead to a reduction of PhilA activation”.

What about the “Log2 Fold change STM0972” value [4, 5] of the same compound?
Its value is -1.019 and -1.567 and -1.468.

And the “Log2 Fold change STM05625” value [4, 5]?
Its value is -1.06 and -1.782 and -1.1981.

And the “Log2 Fold change avrA” value [4, 5]?
The value was -1.134 and -2.023 and -1.399.

What about the “Log2 Fold change hilA” value [4, 5] of the same compound?
The value was -3.571 and -4.424 and -3.961.

What about the “Log2 Fold change hilC” value [4, 5] of the same compound?
The value was -2.8 and -3.816 and -2.688.

And the “Log2 Fold change hilD” value [4, 5]?
Its value is -1.794 and -2.09 and -1.995.

And the “Log2 Fold change iacP” value [4, 5]?
The value was -2.394 and -3.567 and -2.412.

And the “Log2 Fold change iagB” value [4, 5]?
Its value is -3.642 and -4.006 and -3.534.

What about the “Log2 Fold change invA” value [4, 5] of the same compound?
The value was -3.221 and -3.81 and -3.166.

And the “Log2 Fold change invB” value [4, 5]?
The value was -2.867 and -3.637 and -3.183.

And the “Log2 Fold change invC” value [4, 5]?
The value was -2.536 and -3.183 and -2.8784.

What about the “Log2 Fold change invE” value [4, 5] of the same compound?
Its value is -3.292 and -4.06 and -3.2144.

And the “Log2 Fold change invF” value [4, 5]?
The value was -3.621 and -4.389 and -3.592.

And the “Log2 Fold change invG” value [4, 5]?
The value was -3.834 and -4.335 and -3.589.

And the “Log2 Fold change invH” value [4, 5]?
The value was -3.135 and -3.596 and -3.2198.

And the “Log2 Fold change invI” value [4, 5]?
The value was -3.283 and -3.556 and -3.358.

And the “Log2 Fold change orgA” value [4, 5]?
Its value is -1.913 and -2.484 and -2.0655.

And the “Log2 Fold change orgB” value [4, 5]?
The value was -1.03 and -1.516 and -1.313.

And the “Log2 Fold change orgC” value [4, 5]?
Its value is -0.8446 and -1.317 and -1.218.

What about the “Log2 Fold change pagC” value [4, 5] of the same compound?
The value was -0.9557 and -1.642 and -1.303.

What about the “Log2 Fold change pipB” value [4, 5] of the same compound?
Its value is -1.346 and -1.626 and -1.791.

What about the “Log2 Fold change prgH” value [4, 5] of the same compound?
The value was -2.242 and -3.146 and -2.589.

What about the “Log2 Fold change prgI” value [4, 5] of the same compound?
The value was -2.528 and -3.17 and -2.85.

What about the “Log2 Fold change prgJ” value [4, 5] of the same compound?
The value was -2.351 and -3.201 and -2.717.

And the “Log2 Fold change prgK” value [4, 5]?
Its value is -2.159 and -2.912 and -2.508.

And the “Log2 Fold change rtsA” value [4, 5]?
Its value is -3.522 and -4.691 and -3.546.

What about the “Log2 Fold change sicA” value [4, 5] of the same compound?
The value was -2.525 and -3.5667 and -2.5609.

And the “Log2 Fold change sicP” value [4, 5]?
The value was -1.008 and -1.8772 and -1.275.

And the “Log2 Fold change sifB” value [4, 5]?
The value was -1.447 and -2.07 and -1.848.

And the “Log2 Fold change sipA” value [4, 5]?
Its value is -2.154 and -3.4073 and -2.1103.

And the “Log2 Fold change sipB” value [4, 5]?
Its value is -2.364 and -3.5554 and -2.316.

What about the “Log2 Fold change sipC” value [4, 5] of the same compound?
The value was -2.344 and -3.615 and -2.313.

What about the “Log2 Fold change sipD” value [4, 5] of the same compound?
The value was -2.421 and -3.506 and -2.2134.

What about the “Log2 Fold change sopB” value [4, 5] of the same compound?
The value was -1.308 and -2.976 and -1.42.

And the “Log2 Fold change sopD” value [4, 5]?
Its value is -1.407 and -0.6715 and -1.948.

And the “Log2 Fold change sopE2” value [4, 5]?
Its value is -1.5 and -2.647 and -1.472.

What about the “Log2 Fold change spaN” value [4, 5] of the same compound?
The value was -2.873 and -3.527 and -3.123.

And the “Log2 Fold change spaO” value [4, 5]?
The value was -2.648 and -3.446 and -2.941.

And the “Log2 Fold change spaP” value [4, 5]?
The value was -2.823 and -3.907 and -2.993.

What about the “Log2 Fold change spaQ” value [4, 5] of the same compound?
The value was -3 and -2.087 and -2.907.

What about the “Log2 Fold change spaR” value [4, 5] of the same compound?
The value was -1.963 and -4.022 and -1.926.

And the “Log2 Fold change spaS” value [4, 5]?
Its value is -2.051 and -2.854 and -2.155.

What about the “Log2 Fold change sprB” value [4, 5] of the same compound?
Its value is -2.031 and -3.538 and -1.986.

And the “Log2 Fold change ssaG” value [4, 5]?
Its value is -1.637 and -2.322 and -2.8413.

And the “log2 fold change expression RtsA” value [4, 6]?
Its value is 3.82.

And the “log2 fold change expression hilA” value [4, 6]?
Its value is 3.94.

And the “log2 fold change expression hilC” value [4, 6]?
Its value is 3.02.

What about the “log2 fold change expression hilD” value [4, 6] of the same compound?
The value was 1.95.
